Experimental data: PubChem BioAssay AID180 (DTP/NCI, 2004)
Several values for one entry are separate records, joined by “and”; a condition that tells them apart may be missing. Equal values may be shown once.

System: BDF1 mice, Adenocarcinoma 755 s.c., tumor weight T/C
Test: NCI In Vivo Anticancer Drug Screen. Data for tumor model Adenocarcinoma 755 (subcutaneous) in B6D2F1 (BDF1) mice
Details: endpoint: mean tumor weight, schedule: Q01DX011 (ip), higher = larger tumour
Outline: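 Compound activity was tested in mice carrying transplanted tumors. Survival or tumor size was measured, and each value is the treated-group measurement divided by that of the vehicle-treated control group (T/C).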

[1] = dose: 25.0 mg/kg/injection, vehicle: methylcellulose (MC)
[2] = dose: 50.0 mg/kg/injection, vehicle: methylcellulose (MC)
[3] = dose: 100.0 mg/kg/injection, vehicle: methylcellulose (MC)

With O=C1CN(/N=C\c2ccc([N+](=O)[O-])o2)C(=O)N1 as the compound, how does the T/C (dose: 4.74 mg/kg/injection, vehicle: carboxymethylcellulose (CMC)) read?
Its T/C is 111 % of control.

What about the T/C (dose: 8.03 mg/kg/injection, vehicle: carboxymethylcellulose (CMC)) of the same compound?
The T/C was 96 % of control.

And the T/C (dose: 9.48 mg/kg/injection, vehicle: carboxymethylcellulose (CMC))?
The T/C was 121 % of control.

And the T/C (dose: 12.5 mg/kg/injection, vehicle: methylcellulose (MC))?
Its T/C is 83 % of control.

What about the T/C (dose: 16.05 mg/kg/injection, vehicle: carboxymethylcellulose (CMC)) of the same compound?
Its T/C is 115 % of control.

And the T/C (dose: 18.95 mg/kg/injection, vehicle: carboxymethylcellulose (CMC))?
The T/C was 94 % of control.

What about the T/C [1] of the same compound?
The T/C was 61 % of control.

And the T/C (dose: 25.68 mg/kg/injection, vehicle: carboxymethylcellulose (CMC))?
Its T/C is 68 % of control.

And the T/C (dose: 35.0 mg/kg/injection, vehicle: carboxymethylcellulose (CMC))?
The T/C was 84 % of control.

And the T/C (dose: 37.9 mg/kg/injection, vehicle: carboxymethylcellulose (CMC))?
Its T/C is 80 % of control.

What about the T/C (dose: 42.8 mg/kg/injection, vehicle: carboxymethylcellulose (CMC)) of the same compound?
Its T/C is 41 % of control.

And the T/C (dose: 45.0 mg/kg/injection, vehicle: carboxymethylcellulose (CMC))?
Its T/C is 64 % of control.

What about the T/C [2] of the same compound?
The T/C was 75 % of control.

What about the T/C (dose: 56.0 mg/kg/injection, vehicle: carboxymethylcellulose (CMC)) of the same compound?
Its T/C is 98 % of control.

What about the T/C (dose: 64.0 mg/kg/injection, vehicle: carboxymethylcellulose (CMC)) of the same compound?
The T/C was 72 % of control.

What about the T/C (dose: 75.0 mg/kg/injection, vehicle: methylcellulose (MC)) of the same compound?
The T/C was 55 % of control.

And the T/C [3]?
Its T/C is 89 % of control.

N#[N+]c1nc[nH]c1C(N)=O was tested. Which T/C (dose: 1.25 mg/kg/injection, vehicle: methylcellulose (MC)) did it give?
The T/C was 61 % of control.

For CC(C)Cn1cnc2c(SCCCc3ccccc3)nc(N)nc21, which T/C [1] is on record?
The T/C was 72 % of control.

And the T/C [2]?
Its T/C is 39 % of control.

And the T/C [3]?
Its T/C is 10 % of control.

And the T/C (dose: 200.0 mg/kg/injection, vehicle: methylcellulose (MC))?
Its T/C is 8 % of control.

What does the source list for CC(C)CSc1nc(N)nc2c1ncn2CC(C)C?
T/C [1]: 21 % of control; T/C [2]: 12 % of control; T/C [3]: 1 % of control

CC(C)CSc1ncnc2nc[nH]c12 was tested. Which T/C (dose: 6.0 mg/kg/injection, vehicle: other) did it give?
Its T/C is 45 % of control.

And the T/C (dose: 11.0 mg/kg/injection, vehicle: other)?
Its T/C is 19 % of control.

And the T/C (dose: 22.0 mg/kg/injection, vehicle: other)?
Its T/C is 5 % of control.

What about the T/C (dose: 31.0 mg/kg/injection, vehicle: other) of the same compound?
The T/C was 1 % of control.

What about the T/C (dose: 45.0 mg/kg/injection, vehicle: other) of the same compound?
Its T/C is 7 % of control.

Which results are given for Nc1nc(=S)cc(Nc2ccccc2Cl)[nH]1?
T/C (dose: 31.0 mg/kg/injection, vehicle: methylcellulose (MC)): 101 % of control; T/C (dose: 62.0 mg/kg/injection, vehicle: methylcellulose (MC)): 156 % of control; T/C (dose: 125.0 mg/kg/injection, vehicle: methylcellulose (MC)): 93 % of control; T/C (dose: 250.0 mg/kg/injection, vehicle: methylcellulose (MC)): 122 % of control

CC(C)N(C(C)C)C(C)CCNc1c2ccccc2nc2cc(Cl)ccc12 (configuration not stated) was tested. Which T/C (dose: 3.0 mg/kg/injection, vehicle: methylcellulose (MC)) did it give?
The T/C was 64 % of control.

And the T/C (dose: 6.0 mg/kg/injection, vehicle: methylcellulose (MC))?
The T/C was 79 % of control.

And the T/C (dose: 12.0 mg/kg/injection, vehicle: methylcellulose (MC))?
Its T/C is 72 % of control.

How did the T/C (dose: 1.25 mg/kg/injection, vehicle: saline) turn out when C[N+](C)(C)c1ncnc2nc[nH]c12 was run?
Its T/C is 89 % of control and 77 % of control.

What about the T/C (dose: 2.5 mg/kg/injection, vehicle: saline) of the same compound?
The T/C was 61 % of control and 75 % of control and 86 % of control.

What about the T/C (dose: 11.25 mg/kg/injection, vehicle: saline) of the same compound?
Its T/C is 44 % of control.

What about the T/C (dose: 20.0 mg/kg/injection, vehicle: saline) of the same compound?
Its T/C is 6 % of control and 12 % of control.

What about the T/C (dose: 22.5 mg/kg/injection, vehicle: saline) of the same compound?
The T/C was 3 % of control.

And the T/C (dose: 40.0 mg/kg/injection, vehicle: saline)?
Its T/C is 1 % of control and 3 % of control.

What about the T/C (dose: 45.0 mg/kg/injection, vehicle: saline) of the same compound?
Its T/C is 1 % of control.

And the T/C (dose: 80.0 mg/kg/injection, vehicle: saline)?
Its T/C is 1 % of control and 4 % of control.

And the T/C (dose: 90.0 mg/kg/injection, vehicle: saline)?
Its T/C is 1 % of control.

And the T/C (dose: 160.0 mg/kg/injection, vehicle: saline)?
The T/C was 1 % of control and 3 % of control.
